{"source": "patent EP0497609B1", "about": "“Pyrimido-benzothiazine derivatives for the treatment of inflammation, allergy and cardiovascular disease” (PFIZER INC., priority 1991, dated 1992)", "assay_type_in_all_cases": "in vivo", "key": {"mouse": {"test_system": "mouse", "test": "PAF (Platelet Activating Factor) lethality assay", "settings": "for PAF lethality survival (%): Dose 50 mg/kg", "text": "(§1) The compounds of formulae (I) and (II) of this invention can be shown to inhibit lipoxygenase according to various testing methods. Such methods include the following: RPC (Rat Peritoneal Cavity resident cells) assay according to methods described in Jap. J. Inflammation 7:145-150 (1987), \"Synthesis of leukotrienes by peritoneal macrophages\"; PAF (Platelet Activating Factor) lethality assay according to methods described in Prostaglandisis 30(4):545-551 (1985); and y-RFE (yeast induced Rat Foot Edema) assay according to methods described in Biochem. Pharmacol. 36:547 (1987).\nIn the PAF lethality assay, the compound of Example 5, as shown in the Table above, gave a high (69%) survival percentage. The term \"survival percentage\" herein means the inhibitory efficacy to shock death of the mouse through lipoxygenase metabolites activated by dosing with PAF."}, "rat foot": {"test_system": "rat foot", "test": "y-RFE (yeast induced Rat Foot Edema) assay", "settings": "Dose 60 mg/kg; rat foot edema induced by yeast suspension", "text": "as §1\nFurthermore, in the y-RFE assay, the compound of Example 5, as shown in the Table above, gave a high (69%) edema inhibitory percentage. The term \"edema inhibitory percentage\" herein means the inhibitory efficacy to the swelling of inflammatory edema of the rat foot induced by the injection of yeast suspension."}, "male ICR mice": {"test_system": "male ICR mice", "test": "Acute toxicity after oral administration", "settings": "7 hours after oral administration at 600 mg/kg to male ICR mice", "method": "Acute toxicity of the compound of Example 5 was investigated 7 hours after oral administration at 600 mg/kg to male ICR mice (Charles River Japan Inc., 5 weeks old, avg. body weight of 28 g)."}}, "data": [{"smiles": "O=c1[nH]c2c(c(=O)[nH]1)Nc1ccccc1S2", "note": "[Example 1, 1,5-Dihydro-2H-pyrimido[4,5-b][1,4]benzothiazine-2,4(3H)-dione]", "values": [{"measurement": "PAF lethality survival (%)", "setting": "mouse", "result": 56, "unit": "%"}]}, {"smiles": "Cn1c(=O)[nH]c2c(c1=O)Nc1ccccc1S2", "note": "[Example 2, 1,5-Dihydro-3-methyl-2H-pyrimido[4,5-b][1,4]benzothiazine-2,4(3H)-dione]", "values": [{"measurement": "PAF lethality survival (%)", "setting": "mouse", "result": 30, "unit": "%"}]}, {"smiles": "Cn1c(=O)nc2sc3ccccc3nc-2c1=O", "note": "[Example 5, 3-Methyl-2H-pyrimido[4,5-b][1,4]benzothiazine-2,4(3H)-dione]", "values": [{"measurement": "PAF lethality survival (%)", "setting": "mouse", "result": 69, "unit": "%"}, {"measurement": "ED50", "setting": "mouse; Platelet, read-out: ED₅₀ value in the PAF lethality assay", "result": 51, "unit": "mg/kg"}, {"measurement": "y-RFE edema inhibitory (%)", "setting": "rat foot", "result": 69, "unit": "%"}, {"measurement": "Acute toxicity", "setting": "male ICR mice", "result": "did not show any acute toxic symptoms"}]}]}
